Laboratory results: patent US8623856B2, “Phenoxy-azetidine derivatives as sphingosine 1-phosphate (S1P) receptor modulators” (Allergan, Inc., priority 2012, dated 2014)
pEC50: −log10 of the molar value.

Target: T1, human S1P1 receptor (Homo sapiens, UniProt P21453)
T1 construct: expressed in transfected cells; host or cells: unnamed cell line stably expressing the S1P1 receptor; membranes were used
Experiment: GTP γ35S binding assay for S1P1 activity
Type: biochemical
Details: membranes of cells stably expressing the S1P1 receptor, agonist activity potency
Experimental: Compounds were synthesized and tested for S1P1 activity using the GTP γ^35S binding assay. These compounds may be assessed for their ability to activate or block activation of the human S1P1 receptor in cells stably expressing the S1P1 receptor. GTP γ^35S binding was measured in the medium containing (mM) HEPES 25, pH 7.4, MgCl2 10, NaCl 100, dithitothreitol 0.5, digitonin 0.003%, 0.2 nM GTP γ^35S, and 5 μg membrane protein in a volume of 150 μl. Test compounds were included in the concentration range from 0.08 to 5,000 nM unless indicated otherwise. Membranes were incubated with 100 μM 5′-adenylylimmidodiphosphate for 30 min, and subsequently with 10 μM GDP for 10 min on ice. Drug solutions and membrane were mixed, and then reactions were initiated by adding GTP γ^35S and continued for 30 min at 25° C. Reaction mixtures were filtered over Whatman GF/B filters under vacuum, and washed three times with 3 mL of ice-cold buffer (HEPES 25, pH7.4, MgCl2 10 and NaCl 100). Filters were dried and mixed with scintillant, and counted for ^35S activity using a β-counter. Agonist-induced GTP γ^35S binding was obtained by subtracting that in the absence of agonist. Binding data were analyzed using a non-linear regression method. In case of antagonist assay, the reaction mixture contained 10 nM S1P in the presence of test antagonist at concentrations ranging from 0.08 to 5000 nM.

T1 sequence (P21453 whole entry): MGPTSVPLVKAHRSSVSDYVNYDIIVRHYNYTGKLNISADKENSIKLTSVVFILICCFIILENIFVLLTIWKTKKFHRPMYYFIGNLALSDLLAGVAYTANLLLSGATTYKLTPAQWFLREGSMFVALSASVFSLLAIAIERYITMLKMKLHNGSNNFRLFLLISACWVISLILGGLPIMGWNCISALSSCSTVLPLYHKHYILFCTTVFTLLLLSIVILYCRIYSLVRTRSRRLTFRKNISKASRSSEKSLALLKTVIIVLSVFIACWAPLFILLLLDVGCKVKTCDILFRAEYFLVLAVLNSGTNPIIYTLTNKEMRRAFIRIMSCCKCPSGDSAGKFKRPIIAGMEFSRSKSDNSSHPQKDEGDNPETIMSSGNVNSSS

Structure (SMILES) | pEC50
Cc1ccc(CC(CCCOc2ccc(CN3CC(C(=O)O)C3)cc2)c2ccsc2)cc1C (stereo not shown) [1-(4-{[5-(3,4-dimethylphenyl)-4-(3-thienyl)pentyl]oxy}benzyl)azetidine-3-carboxylic acid] | 8.24
Cc1ccc(CC(CCCOc2ccc(CN3CC(C(=O)O)C3)cc2)c2cc(F)cc(F)c2)cc1C (stereo not shown) [1-(4-{[4-(3,5-difluorophenyl)-5-(3,4-dimethylphenyl)pentyl]oxy}benzyl)azetidine-3-carboxylic acid] | 8.85
Cc1ccc(CC(CCCOc2ccc(CN3CC(C(=O)O)C3)cc2)c2cccc(F)c2F)cc1C (stereo not shown) [1-(4-{([4-(2,3-difluorophenyl)-5-(3,4-dimethylphenyl)pentyl]oxy}benzyl)azetidine-3-carboxylic acid] | 8.86
Cc1ccc(CC(CCOc2ccc(CN3CC(C(=O)O)C3)cc2)c2cccc(Cl)c2)cc1C (stereo not shown) [1-{4-[3-(3-chlorophenyl)-4-(3,4-dimethylphenyl)butoxy]benzyl}azetidine-3-carboxylic acid] | 7.30
